Measurements: ChEMBL document CHEMBL1158786, “Triterpenoid saponin anthranilates from Albizia grandibracteata leaves ingested by primates in Uganda” (J Nat Prod, 2005)

Columns and labels:
MCF7 = test: Cytotoxicity against human MCF7 cells; assay type: functional, cell-based
KB = test: Cytotoxicity against human KB cells; assay type: functional, cell-based

Work on `CC(=O)N[C@H]1[C@H](O[C@H]2CC[C@]3(C)[C@H]4CC=C5[C@@H]6CC(C)(C)[C@@H](OC(=O)c7ccccc7N)C[C@]6(C(=O)O[C@@H]6O[C@H](CO)[C@@H](O)[C@H](O)[C@H]6O[C@@H]6O[C@@H](C)[C@H](O[C@@H]7O[C@@H](CO)[C@H](O)[C@H]7O)[C@@H](O[C@@H]7O[C@H](CO)[C@@H](O)[C@H](O)[C@H]7O)[C@H]6O)[C@H](O)C[C@@]5(C)[C@]4(C)CC[C@H]3C2(C)C)O[C@H](CO[C@@H]2O[C@H](C)[C@H](O)[C@H](O)[C@H]2O[C@@H]2OC[C@@H](O)[C@H](O)[C@H]2O)[C@@H](O)[C@@H]1O` [GRANDIBRACTEOSIDE C] yielded an IC50 (MCF7) of 1.7 µM and an IC50 (KB) of 2.3 µM.

Work on `CC(=O)N[C@H]1[C@H](O[C@H]2CC[C@]3(C)[C@H]4CC=C5[C@@H]6CC(C)(C)[C@@H](OC(=O)c7ccccc7N)C[C@]6(C(=O)O[C@@H]6O[C@H](CO)[C@@H](O)[C@H](O)[C@H]6O[C@@H]6O[C@@H](C)[C@H](O[C@@H]7OC[C@@H](O)[C@H](O)[C@H]7O)[C@@H](O)[C@H]6O)[C@H](O)C[C@@]5(C)[C@]4(C)CC[C@H]3C2(C)C)O[C@H](CO[C@@H]2O[C@H](C)[C@H](O)[C@H](O)[C@H]2O[C@@H]2OC[C@@H](O)[C@H](O)[C@H]2O)[C@@H](O)[C@@H]1O` [GRANDIBRACTEOSIDE A] yielded an IC50 (MCF7) of 0.4 µM and an IC50 (KB) of 1.3 µM.

For `CC(=O)N[C@H]1[C@H](O[C@H]2CC[C@]3(C)[C@H]4CC=C5[C@@H]6CC(C)(C)[C@@H](OC(=O)c7ccccc7N)C[C@]6(C(=O)O[C@@H]6O[C@H](CO[C@@H]7O[C@H](CO)[C@@H](O)[C@H](O)[C@H]7O)[C@@H](O)[C@H](O)[C@H]6O[C@@H]6O[C@@H](C)[C@H](O[C@@H]7OC[C@@H](O)[C@H](O)[C@H]7O)[C@@H](O)[C@H]6O)[C@H](O)C[C@@]5(C)[C@]4(C)CC[C@H]3C2(C)C)O[C@H](CO[C@@H]2O[C@H](C)[C@H](O)[C@H](O)[C@H]2O[C@@H]2OC[C@@H](O)[C@H](O)[C@H]2O)[C@@H](O)[C@@H]1O` [GRANDIBRACTEOSIDE B], the IC50 (MCF7) was 1.7 µM and the IC50 (KB) was 2.3 µM.

Work on `COc1cccc2c1C(=O)c1c(O)c3c(c(O)c1C2=O)C[C@@](O)(C(=O)CO)C[C@@H]3O[C@H]1C[C@H](N)[C@H](O)[C@H](C)O1` [DOXORUBICIN] yielded an IC50 (MCF7) of 0.1 µM and an IC50 (KB) of 0.1 µM.
